Results: ChEMBL document CHEMBL3137381, “MMV Box Onchocerca lienalis screening set”

Columns and labels:
Format in all cases: functional
Onchocerca lienalis [1] = test: MMV: Percent motility assay at a compound concentration of 1.25e-5 M. Activity score legend: 3: Active, 2: Moderately active; 1: Inactive, 0: Toxic; details: at 12.5 µM
Onchocerca lienalis [2] = test: MMV: Percent motility assay at a compound concentration of 3.1e-6 M. Activity score legend: 3: Active, 2: Moderately active; 1: Inactive, 0: Toxic; details: at 3.1 µM
Onchocerca lienalis [3] = test: MMV: Percent motility assay at a compound concentration of 1.9e-7 M. Activity score legend: 3: Active, 2: Moderately active; 1: Inactive, 0: Toxic; details: at 0.19 µM
Onchocerca lienalis [4] = test: MMV: Percent motility assay at a compound concentration of 7.8e-7 M. Activity score legend: 3: Active, 2: Moderately active; 1: Inactive, 0: Toxic; details: at 0.78 µM

SMILES | Motility (Onchocerca lienalis [1]) [%] | Motility (Onchocerca lienalis [2]) [%] | Motility (Onchocerca lienalis [3]) [%] | Motility (Onchocerca lienalis [4]) [%]
COc1ccc2c(c1)C1(Nc3ccccc3-c3nc4ccccc4n31)C(=O)N2 (centres undefined) | 100 | 100 | 100 | 100
COc1cccc(Cn2c(Oc3ccccc3)nc3c2c(=O)n(C)c(=O)n3C)c1 | 100 | 100 | 100 | 100
CCOc1c(Cl)cc(CNCC(O)c2ccccc2)cc1OC (centres undefined) | 100 | 100 | 100 | 100
OC(CNCC1CCCO1)Cn1c2ccc(Cl)cc2c2cc(Cl)ccc21 (centres undefined) | 100 | 100 | 100 | 100
COc1ccc2nc(C)cc(Nc3ccccc3O)c2c1 | 100 | 100 | 100 | 100
CCn1nc(-c2ccc(C(=O)OC)cc2)nc2c(=O)n(C)c(=O)nc1-2 | 100 | 100 | 100 | 100
CC1(c2ccccc2)Nc2ccccc2-c2nc3ccccc3n21 (centres undefined) | 100 | 100 | 100 | 100
CC(C)(C)CC(C)(C)NCC(O)COc1ccc(Cl)cc1Cl (centres undefined) | 100 | 100 | 100 | 100
O=C(Nc1ccc(Br)cc1)Nc1cccc(Cl)c1 | 100 | 100 | 100 | 100
CN(C)CCNc1cc(-c2ccccc2)nc2ccccc12 | 100 | 100 | 100 | 100
COc1ccc2nc(C)cc(Nc3ccc(Cl)cc3)c2c1 | 0 | 100 | 100 | 100
CCC(O)c1ccc(Br)cc1NC(=O)c1cccc(Cl)c1 (centres undefined) | 100 | 100 | 100 | 100
Cc1sc2ncnc(Sc3nc4ccccc4[nH]3)c2c1C | 100 | 100 | 100 | 100
CC(=O)Nc1nnc(SCc2c(C)cc(C(C)(C)C)cc2C)s1 | 100 | 100 | 100 | 100
O=C(Nc1ccc(CN2CCOCC2)cc1)c1ccc(-c2cc(Cl)ccc2Cl)o1 | 100 | 100 | 100 | 100
Cc1cc(Nc2cccc(F)c2)nc(NCc2ccccc2)n1 | 33.33 | 100 | 100 | 100
COCCn1c(C)nc2ccccc2c1=O | 100 | 100 | 100 | 100
O=C(Nc1cccc(-c2nc3ccccc3[nH]2)c1)c1cccc(NC(=O)c2ccco2)c1 | 100 | 100 | 100 | 100
O=C(NC1CCN(Cc2ccccc2)CC1)c1cc(-c2cccnc2)nc2ccc(Cl)cc12 | 100 | 100 | 100 | 100
CCN(Cc1ccccc1)C1CCN(Cc2cc(Br)ccc2O)CC1.O=C(O)C(=O)O | 100 | 100 | 100 | 100
COc1ccc(-c2nonc2NC(=O)c2cccc(Cl)c2)cc1OC | 100 | 100 | 100 | 100

SMILES | Motility (Onchocerca lienalis [1]) [%] | Motility (Onchocerca lienalis [2]) [%] | Motility (Onchocerca lienalis [3]) [%] | Motility (Onchocerca lienalis [4]) [%]
Cc1cc(NC(=O)c2ccc(-c3ccccc3)cc2)no1 | 100 | 100 | 100 | 100
CCOc1cc2c(cc1OCC)C(c1cc(C)c(O)c(C)c1)NCC2.Cl (centres undefined) | 100 | 100 | 100 | 100
O=C1CC(O)(C(F)(F)C(F)(F)F)Oc2ccccc21 (centres undefined) | 100 | 100 | 100 | 100
COc1cc(SC)ccc1C(=O)N1CCCC(C)C1 (centres undefined) | 100 | 100 | 100 | 100
CC(C)c1ccc(CNCC(O)c2ccccc2)cc1.Cl (centres undefined) | 100 | 100 | 100 | 100
Cc1ccc(NC(=O)Nc2cccc(Cl)c2)cc1F | 100 | 100 | 100 | 100
O=C(O)C(=O)O.Oc1ccc(Br)cc1CN1CCN(Cc2cccc(F)c2)CC1 | 100 | 100 | 100 | 100
O=c1nc(C=Cc2ccc(Cl)cc2)oc2ccccc12 | 100 | 100 | 100 | 100
O=C(NCc1ccco1)C1CCN(S(=O)(=O)c2ccc(Br)cc2)CC1 | 100 | 100 | 100 | 100
CN(C)c1ccc(N2C(N)=NC(N)=NC2(C)C)cc1 | 100 | 100 | 100 | 100
COc1ccc(Nc2nc(NCc3ccccc3)c3ccccc3n2)cc1 | 33.33 | 100 | 100 | 100
COc1cc2c(cc1OC)C1=NNC(=O)C1=NC(C)(C)C2 | 100 | 100 | 100 | 100
Oc1c2c(nc3cc(-c4ccccc4)nn13)CCCC2 | 100 | 100 | 100 | 100
CCCCc1c(C)nc2c(OC)cccc2c1O | 100 | 100 | 100 | 100
CCOC(=O)C1CCN(C(=O)CN2C(=O)c3ccccc3C2c2c[nH]c3ccccc23)CC1 (centres undefined) | 100 | 100 | 100 | 100
CCOc1ccc(CCNC(=O)c2cccs2)cc1OCC | 100 | 100 | 100 | 100
Cc1cc(N2CCN(C3CCCC3)CC2)n2c(nc3ccccc32)c1C#N | 100 | 100 | 100 | 100
CCCCOc1ccc(C(=O)Nc2cc(C)on2)cc1 | 100 | 100 | 100 | 100
Br.CCN(CC)S(=O)(=O)c1ccc(-c2csc(Nc3ccc(C)c(C)c3)n2)cc1 | 100 | 100 | 100 | 100
Cc1c(C)n(CC(O)CNC2CCCCC2C)c2ccccc12 (centres undefined) | 100 | 100 | 100 | 100
